The subject of assay [1] is Rattus norvegicus. Put plainly: Effect of compound (50 mg/kg) on Blood Ethanol level in Ethanol loaded rats after 1 hr. Format: functional.
The test system of assay [2] is Rattus norvegicus. Description: Effect of compound (50 mg/kg) on Blood Ethanol level in Ethanol loaded rats after 2 hr. The class given is functional.
Assay [3] concerns Rattus norvegicus. Put plainly: Effect of compound (50 mg/kg) on Blood Ethanol level in Ethanol loaded rats after 30 minutes. Format: functional.
Assay [4] deals with Rattus norvegicus. Description: Effect of compound (25 mg/kg) on Blood Ethanol level in Ethanol loaded rats after 1 hr. Format: functional.
Assay [5] deals with Rattus norvegicus. Description: Effect of compound (25 mg/kg) on Blood Ethanol level in Ethanol loaded rats after 2 hr. The class given is functional.
For assay [6], the system named is Rattus norvegicus. Put plainly: Effect of compound (25 mg/kg) on Blood Ethanol level in Ethanol loaded rats after 30 minutes. The class given is functional.
The test system of assay [7] is Rattus norvegicus. Put plainly: Effect of compound (50 mg/kg) on Gastric emptying in Ethanol loaded rats after 30 minutes. The class given is functional, Stomach.
Assay [8] relates to Rattus norvegicus. Put plainly: Effect of compound (50 mg/kg) on Gastric emptying time in Ethanol loaded rats after 30 minutes. Format: functional, Stomach.
Assay [9] has as its system Rattus norvegicus. Description: Effect of compound (25 mg/kg) on Gastric emptying in Ethanol loaded rats after 30 minutes. The class given is functional, Stomach.
In assay [10] the test system is Rattus norvegicus. Description: Effect of compound (25 mg/kg) on Gastric emptying time in Ethanol loaded rats after 30 minutes. The class given is functional, Stomach.
In assay [11] the test system is Rattus norvegicus. Description: Effect of compound (25 mg/kg) on Serum glucose level in glucose loaded rats after 1 hr. Format: functional, organism-based.
Assay [12] deals with Rattus norvegicus. Put plainly: Effect of compound (25 mg/kg) on Serum glucose level in glucose loaded rats after 2 hr. Format: functional, organism-based.
Assay [13] has as its system Rattus norvegicus. Description: Effect of compound (25 mg/kg) on Serum glucose level in glucose loaded rats after 30 minutes. The class given is functional, organism-based.
Assay [14] deals with Rattus norvegicus. Description: Effect of compound (50 mg/kg) on Serum glucose level in glucose loaded rats after 1 hr. The class given is functional, organism-based.
Assay [15] concerns Rattus norvegicus. Description: Effect of compound (50 mg/kg) on Serum glucose level in glucose loaded rats after 2 hr. Format: functional, organism-based.
Assay [16] has as its system Rattus norvegicus. Description: Effect of compound (50 mg/kg) on Serum glucose level in glucose loaded rats after 30 minutes. Format: functional, organism-based.
Assay [17] concerns Rattus norvegicus. Description: Effect of compound (12.5 mg/kg) on Blood Ethanol level in Ethanol loaded rats after 1 hr. Format: functional.
Assay [18] deals with Rattus norvegicus. Description: Effect of compound (12.5 mg/kg) on Blood Ethanol level in Ethanol loaded rats after 2 hr. Format: functional.
Assay [19] relates to Rattus norvegicus. Description: Effect of compound (12.5 mg/kg) on Blood Ethanol level in Ethanol loaded rats after 30 minutes. Format: functional.
In assay [20] the test system is Rattus norvegicus. Description: Effect of compound (12.5 mg/kg) on Gastric emptying in Ethanol loaded rats after 30 minutes. Format: functional, Stomach.

Each structure is given as a SMILES string. Values joined by “and” are separate entries in the source; they are usually repeats but may differ in a detail not shown here. Equal values may be shown once.

In general, Inhibition refers to the share of the control response that was lost under treatment.

On to `C=C1CCC[C@]2(C)CC[C@@H](C(C)(C)O)C[C@@H]12` [BETA-EUDESMOL], for which the Activity in assay [1] came to 0.73 mg/mL; in assay [4] it was 0.7 mg/mL; in assay [5] it was 0.2 mg/mL. Further, the Blood ethanol level in assay [2] amounted to 0.2 mg/mL. Besides, the Blood ethanol concentration in assay [3] came out at 0.77 mg/mL; in assay [6], 0.79 mg/mL.
For `C=C1C(=O)O[C@@H]2/C=C(\C)CC/C=C(\C)CC[C@@H]12` [COSTUNOLIDE], the values for the Activity in assay [1], in assay [4] and in [5] were 0.21 mg/mL, 0.2 mg/mL and 0.1 mg/mL, respectively. Further, the Blood ethanol level in assay [2] is 0.19 mg/mL. The Blood ethanol concentration in assay [3] came to 0.18 mg/mL; in assay [6] it was 0.23 mg/mL. Moreover, the Inhibition came out at 48.2% in assay [7], 42.1% in [8], 62.1% in assay [9] and 25.5% in assay [10]. Also, the Serum glucose was determined as 151 mg/dL in assay [11]; 117 mg/dL in assay [12]; 179 mg/dL in assay [13]; 150 mg/dL in assay [14]; 112 mg/dL in assay [15]; 171 mg/dL in assay [16].
For the compound `C=C1CC[C@H]2C(=C)CC[C@H]3C(=C)C(=O)O[C@@H]3[C@@H]12` [DEHYDROCOSTUSLACTONE], the results for the Activity in [1], in assay [4] and in assay [5] were 0.23 mg/mL, 0.4 mg/mL and 0.2 mg/mL, respectively. The compound further came in with a Blood ethanol level in [2] of 0.19 mg/mL. The Blood ethanol concentration in [3] worked out at 0.2 mg/mL; in assay [6], 0.57 mg/mL.
For `C=C1C(=O)O[C@@H]2[C@H]3C(C)=CC[C@@H](O)[C@]3(C)CC[C@@H]12` [SANTAMARIN], the values for the Activity in assay [1], in [4] and in assay [5] were 0.21 mg/mL, 0.43 mg/mL and 0.2 mg/mL, respectively. The compound further yielded a Blood ethanol level in [2] of 0.18 mg/mL. Besides, the Blood ethanol concentration amounted to 0.2 mg/mL in assay [3] and 0.4 mg/mL in [6].
For the compound `C=C1CCOC1=O` [TULIPALINE A], the Activity amounted to 0.1 mg/mL in assay [1]; 0.7 mg/mL in assay [17]; 0.39 mg/mL in assay [18]; 0.32 mg/mL in [19]; 0.17 mg/mL in assay [4]; 0.01 mg/mL in assay [5]. In addition, the Blood ethanol level in [2] came to 0.01 mg/mL. Moreover, the Blood ethanol concentration in assay [3] worked out at 0.04 mg/mL; in assay [6], 0.09 mg/mL. In addition, the Inhibition is 47.9% and 38.8% in assay [20]; 33.5% and 57.2% in assay [9].

Values taken from ChEMBL document CHEMBL1132523, “Preventive effect of sesquiterpenes from bay leaf on blood ethanol elevation in ethanol-loaded rat: structure requirement and suppression of gastric emptying” (1999).
